In patent US9724351B2, “Compounds for the treatment of paramoxyvirus viral infections” (priority 2012, dated 2017):

Experiments:
[1] = system: Respiratory Syncytial Virus (RSV) long strain (ATCC#VR-26); experiment: RSV Antiviral Assay (CPE reduction assay); assay type: cell-based; settings: human respiratory syncytial virus, 120 h; HEp-2 cells infected with RSV long strain, 5 days, CCK-8 readout; bins (Table 2: less than 1 μM; Table 3: equal to or higher than 1 μM and less than 50 μM); read-out: 50% effective concentration (EC50)
Experimental: CPE reduction assays are performed as described by Sidwell and Huffman et al., Appl. Microbiol. (1971) 22(5):797-801 with slight modifications. HEp-2 cells (ATCC#, CCL-23) are seeded at a density of 1,500 cells/30 μl/well into the 384-well cell plate(s) (Corning#3701) one day prior to the assay. Compounds are added into 384-well cell plates by Labcyte POD 810 Plate Assembler system. Each of the test compounds is provided to duplicate wells of a 384-well cell plate at final concentrations starting from 100 μM or 1 μM using ⅓ stepwise dilutions for 9 points. Quick-thaw Respiratory Syncytial Virus (RSV) long strain (ATCC#VR-26) stock in a 37° C. water bath. Place on ice until ready to use. Viruses are diluted to the concentration of 100 TCID50/30 μl with medium and 30 μl diluted RSV are added into related wells of 384-well cell plates. For each plate, sixteen wells are set aside as uninfected, untreated cell controls (CC), and nine wells per test plate receive virus only as a control for virus replication (VC). The final DMSO concentration of all wells is 1%. Place the plates at 37° C., 5% CO2 for 5 days.
After 5 days incubation, observe the CPE of cells in all wells. […] Six μl of cell counting kit-8 reagent (CCK-8, Dojindo Molecular Technologies Inc., CK04-20) are added to each well, which allows colorimetric assays to determine the number of viable cells through the dehydrogenase activity detection. After 3-4 hour incubation, the absorbance of each well is measured with a spectrophotometric plate reader at 450 nm wavelength, using a 630 nm filter as background according to manufacturer's instruction. The 50% effective concentration (EC50) is calculated by using regression analysis, based on the mean O.D. at each concentration of compound.

[2] = Cytotoxicity Determination; assay type: cell-based; settings: human, HEp-2 cells, without addition of virus, CCK-8 readout, bins (Table 4: greater than 100 μM; Table 5: equal to or less than 100 μM and greater than 10 μM), read-out: 50% cytotoxicity concentration (CC50)
Outline: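 Uninfected cells were exposed to compounds in duplicate over a 7-point ½ dilution series starting at 100 μM final, for 5 days at 37 °C, 5% CO2. CCK-8 was then added for 3-4 h, and CC50 was calculated from optical density.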

COc1ccc(C(=O)NCC(=O)c2cc(C(C)C)cc(-c3csc4c(F)cccc34)n2)cc1OC [Compound 1200]
EC50 [1]: < 1 µM
CC50 at 5 days [2]: > 100 µM

CCOc1ccc(C(=O)NCC(=O)N/N=C/c2coc3c(F)cccc23)cc1OC [Compound 400-28]
EC50 [1]: 1 to 50 µM
CC50 at 5 days [2]: > 100 µM

COc1cc(C(=O)N[C@@H](CCCCN)C(=O)c2ccc(OC)c(-c3csc4c(F)cccc34)n2)ccc1OCCO [Compound 1835]
EC50 [1]: < 1 µM
CC50 at 5 days [2]: 10 to 100 µM

COc1ccc(C(=O)NCC(=O)N/N=C(\C)c2csc3ccc(F)cc23)cc1OC [Compound 422]
EC50 [1]: 1 to 50 µM
CC50 at 5 days [2]: 10 to 100 µM

COc1ccc(C(=O)NCC(=O)N/N=C(/C)c2c(OC)sc3ccccc23)cc1OC [Compound 400-14]
EC50 [1]: 1 to 50 µM
CC50 at 5 days [2]: > 100 µM

COc1cc(C(=O)NCC(=O)c2ccc(OC)c(-c3ccc(F)c(C(F)(F)F)c3)n2)ccc1OCCO [Compound 1614]
EC50 [1]: < 1 µM
CC50 at 5 days [2]: > 100 µM

COc1ccc(C(=O)NCC(=O)N/N=C(\C)c2csc3ncccc23)cc1OC [Compound 400-10]
EC50 [1]: 1 to 50 µM
CC50 at 5 days [2]: > 100 µM

COc1ccc(C(=O)CNC(=O)c2cc(C)on2)nc1-c1ccc(F)c(Cl)c1 [Compound 4202]
EC50 [1]: 1 to 50 µM
CC50 at 5 days [2]: > 100 µM

COc1cc(C(=O)NCC(=O)c2ccc(OC)c(-c3ccc(F)c(Cl)c3)n2)ccc1-c1cnn(C)c1 [Compound 2651]
EC50 [1]: 1 to 50 µM
CC50 at 5 days [2]: 10 to 100 µM

COc1cc(C(=O)NCC(=O)N2CCN(c3ccc(F)c(Cl)c3)C2=O)ccc1OCCO [Compound 3900]
EC50 [1]: 1 to 50 µM
CC50 at 5 days [2]: > 100 µM

COc1cc(C(=O)NCC(=O)c2cc(C(C)(C)C)cc(-c3ccc(F)c(Cl)c3)n2)ccc1OCCO [Compound 2115]
EC50 [1]: < 1 µM
CC50 at 5 days [2]: 10 to 100 µM

COc1cc(C(=O)NCC(=O)c2ccc(OC)c(-c3ccc(F)c(Cl)c3)n2)ccc1OCCF [Compound 2648]
EC50 [1]: < 1 µM
CC50 at 5 days [2]: > 100 µM

CCCn1nc(C(=O)CNC(=O)c2ccc(OC)c(OC)c2)nc1-c1csc2c(F)cccc12 [Compound 1205]
EC50 [1]: 1 to 50 µM
CC50 at 5 days [2]: 10 to 100 µM

O=C(NCC(=O)c1cccc(-c2csc3c(F)cccc23)n1)c1ccc(OCCO)c(O)c1 [Compound 1230]
EC50 [1]: 1 to 50 µM
CC50 at 5 days [2]: 10 to 100 µM

COc1cc(C(=O)NCC(=O)c2ccc(OC)c(-c3ccc(F)c(Cl)c3)n2)ccc1OC1COC1 [Compound 1312]
EC50 [1]: < 1 µM
CC50 at 5 days [2]: > 100 µM

COCC/C(=N/NC(=O)CNC(=O)c1ccc(OC)c(OC)c1)c1csc2c(F)cccc12 [Compound 400-16]
EC50 [1]: 1 to 50 µM
CC50 at 5 days [2]: > 100 µM

COc1ccc(C(=O)NCC(=O)c2ccc(OC)c(-c3ccc4[nH]cnc4c3)n2)cc1OC [Compound 1534]
EC50 [1]: 1 to 50 µM
CC50 at 5 days [2]: > 100 µM

COc1ccc(C(=O)NCC(O)c2ccnc(-c3csc4c(F)cccc34)n2)cc1OC (stereo not shown) [Compound 839, N-(2-(2-(7-fluorobenzo[b]thiophen-3-yl)pyrimidin-4-yl)-2-hydroxyethyl)-3,4-dimethoxy-benzamide]
EC50 [1]: 1 to 50 µM
CC50 at 5 days [2]: > 100 µM

C/C=C\c1cc(C(=O)CNC(=O)c2ccc(OC)c(OC)c2)nc(-c2csc3c(F)cccc23)c1 [Compound 1243]
EC50 [1]: 1 to 50 µM
CC50 at 5 days [2]: > 100 µM

COc1ccc(C(=O)CNC(=O)c2ccnc(C)c2)nc1-c1ccc(F)c(Cl)c1 [Compound 4204]
EC50 [1]: 1 to 50 µM
CC50 at 5 days [2]: > 100 µM

CCN(CC)c1ccc(C(=O)NCC(=O)N/N=C(\C)c2csc3ccccc23)cc1OC [Compound 500]
EC50 [1]: 1 to 50 µM
CC50 at 5 days [2]: > 100 µM

CCc1cc(C(=O)CNC(=O)c2ccc(OCCO)c(OC)c2)nc(-c2csc3c(F)cccc23)c1 [Compound 1250]
EC50 [1]: < 1 µM
CC50 at 5 days [2]: > 100 µM

COc1cc(C(=O)NCC(=O)c2ccc(OC)c(-c3ccc(Cl)c(C(F)(F)F)c3)n2)ccc1OCCO [Compound 1623]
EC50 [1]: < 1 µM
CC50 at 5 days [2]: > 100 µM

COc1ccc(C(=O)NCC(=O)c2ccc(OC)c(-c3cncnc3)n2)cc1OC [Compound 1520]
EC50 [1]: 1 to 50 µM
CC50 at 5 days [2]: > 100 µM

COc1ccc(C(=O)CNC(=O)c2ccc(OCCO)cc2)nc1-c1ccc(F)c(Cl)c1 [Compound 1308]
EC50 [1]: 1 to 50 µM
CC50 at 5 days [2]: > 100 µM

COc1ccc(C(=O)NCC(=O)c2nc(-c3csc4c(F)cccc34)cs2)cc1OC [Compound 1206]
EC50 [1]: 1 to 50 µM
CC50 at 5 days [2]: 10 to 100 µM

CCOc1ccc(C(=O)NCC(=O)N/N=C(/CCOC)c2csc3c(F)cccc23)cc1OC [Compound 463B]
EC50 [1]: < 1 µM
CC50 at 5 days [2]: > 100 µM

COc1cc(C(=O)NCC(=O)c2ccc(OC)c(-c3ccc(Cl)cc3)n2)ccc1OCCO [Compound 1607]
EC50 [1]: < 1 µM
CC50 at 5 days [2]: 10 to 100 µM

COc1ccc(C(=O)NCC(=O)N/N=C(\C)c2csc3ccccc23)cc1OC [Compound 411]
EC50 [1]: < 1 µM
CC50 at 5 days [2]: 10 to 100 µM

COc1cc(C(=O)NCC(=O)c2ccc(OC)c(-c3ccc(F)c(Cl)c3)n2)ccc1OC(F)F [Compound 2646]
EC50 [1]: < 1 µM
CC50 at 5 days [2]: 10 to 100 µM

CCCn1cc(-c2csc3c(F)cccc23)nc1C(=O)CNC(=O)c1ccc(OC)c(OC)c1 [Compound 1355]
EC50 [1]: 1 to 50 µM
CC50 at 5 days [2]: 10 to 100 µM

COCCc1ccc(C(=O)NCC(=O)c2ccc(OC)c(-c3ccc(F)c(Br)c3)n2)cc1OC [Compound 1334]
EC50 [1]: < 1 µM
CC50 at 5 days [2]: 10 to 100 µM

COc1cc(OC)c(C(=O)NCC(=O)N/N=C(\C)c2csc3ccccc23)cc1OC [Compound 480]
EC50 [1]: 1 to 50 µM
CC50 at 5 days [2]: > 100 µM

CCCC/C(=N/NC(=O)CNC(=O)c1ccc(OCCO)c(OC)c1)c1csc2c(F)cccc12 [Compound 602]
EC50 [1]: < 1 µM
CC50 at 5 days [2]: > 100 µM

COc1ccc(C(=O)NCC(=O)N/N=C(\C)c2c(OC)sc3ccccc23)cc1OC [Compound 400-19]
EC50 [1]: 1 to 50 µM
CC50 at 5 days [2]: 10 to 100 µM

C=C(C)/C(=N\NC(=O)CNC(=O)c1ccc(OC)c(OC)c1)c1csc2ccccc12 [Compound 434]
EC50 [1]: 1 to 50 µM
CC50 at 5 days [2]: > 100 µM

COc1cc(C(=O)NCC(=O)N(C)/N=C/c2c(F)sc3c(F)cccc23)ccc1OCCO [Compound 2304]
EC50 [1]: 1 to 50 µM
CC50 at 5 days [2]: 10 to 100 µM

COc1cc(C(=O)NCC(=O)c2ccc(OC)c(-c3ccc(F)c(C#N)c3)n2)ccc1OCCO [Compound 1615]
EC50 [1]: 1 to 50 µM
CC50 at 5 days [2]: > 100 µM

COCC/C(=N\NC(=O)CNC(=O)c1ccc(OC2COC2)c(OC)c1)c1csc2c(F)cccc12 [Compound 514A]
EC50 [1]: < 1 µM
CC50 at 5 days [2]: > 100 µM

COc1ccc(C(=O)NCC(=O)c2ccc(OC)c(-c3ccc4cn(C)nc4c3)n2)cc1OC [Compound 1538]
EC50 [1]: 1 to 50 µM
CC50 at 5 days [2]: > 100 µM

COc1ccc(C(=O)NCC(=O)c2ccc(OC)c(-c3cc(C(=O)NC4CCCCC4)ccc3F)n2)cc1OC [Compound 1514]
EC50 [1]: 1 to 50 µM
CC50 at 5 days [2]: > 100 µM

COc1cc(C(=O)NCC(=O)c2ccc(OC)c(-c3ccc(Cl)c(Cl)c3)n2)ccc1OCCF [Compound 2627]
EC50 [1]: < 1 µM
CC50 at 5 days [2]: > 100 µM

CNc1ccc(C(=O)CNC(=O)c2ccc(OCCO)c(OC)c2)nc1-c1csc2c(F)cccc12 [Compound 1253]
EC50 [1]: < 1 µM
CC50 at 5 days [2]: > 100 µM

COc1cc(C(=O)CNC(=O)c2ccc(OCCN)c(OC)c2)nc(-c2csc3c(F)cccc23)c1 [Compound 1214]
EC50 [1]: < 1 µM
CC50 at 5 days [2]: 10 to 100 µM
